Results on 12 molecules are retold here after patent US12139492B2 (Endotarget Inc., priority 2021, dated 2024).

The target in assay [1] is T1, BTK (Homo sapiens, UniProt Q06187). Nature of the assay: Degradation of BTK protein in Namalwa cells (Western blot; DC50, Dmax). To be noted: for degradation of BTK protein / degradation of BTK protein at 10^−6 M: Namalwa B lymphocyte cells, Western blot; for degradation of BTK protein: various concentrations, 24 hours; for DC50: read-out: DC50 (BTK degradation), concentration giving 50% reduction of BTK expression level, cell line not given; for Dmax: read-out: Dmax (BTK degradation).

Assay [2] has as its target T1, BTK. The assay is described as follows: Degradation of BTK protein in JeKo-1 cells (Western blot; DC50, Dmax). Conditions: JeKo-1 mantle cell lymphoma cells, various concentrations, 24 hours.
Method: (§2) Namalwa, JeKo-1, or Mino cells were plated in 24-well plates at a density of 10^5 cells/well. Media containing various drug concentrations were added on the day following plating (day 0) and allowed to incubate for 24 hours for Western blot. Media with the tested compound was changed every other day. […] Media were removed and dishes were washed with 1×DPBS. Lysates were made by adding 150 μL of complete lysis solution and scraping cells into a 1.5 mL microcentrifuge tube. Lysates were placed on a rotisserie at 4° C. for 30 min and then spun at 4° C. at 12000 rcf for 10 min. Supernatants were assayed for protein content, snap-frozen, and stored a −80° C. if not run immediately. Then 50 μg of protein was subjected to Western blot protocol. […] They were then imaged on a LICOR infrared scanner.
The test system of another assay is JeKo-1 cells. The assay is described as follows: Antiproliferative effect, MTS cell viability assay, JeKo-1 cells. In kind it is cell-based. Conditions: Homo sapiens; JeKo-1 mantle cell lymphoma cells; read-out: IC50 (anti-proliferation) JeKO-1 cells. The method, boiled down: (§1)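 MTS read-out, A490 of formazan from metabolically active cells; compound 0–10 μM (0, 0.001, 0.01, 0.1, 1, 10 μM), 72 h exposure.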

The target in assay [3] is T1, BTK. The assay is described as follows: BTK degradation, DC50 and Dmax of Table 1 (cell line not given). In kind it is cell-based. Conditions: for DC50: concentration giving 50% reduction of BTK expression level. Also on record: endogenous in cells.
Another assay deals with Mino cells. The assay is described as follows: Antiproliferative effect, MTS cell viability assay, Mino cells. In kind it is cell-based. To be noted: Homo sapiens, Mino mantle cell lymphoma cells, read-out: IC50 (anti-proliferation) Mino cells. In short, it runs like this: as §1
Assay [4] concerns the target T1, BTK. Nature of the assay: Degradation of BTK protein in Mino cells (Western blot; DC50, Dmax). Conditions: Mino mantle cell lymphoma cells, various concentrations, 24 hours.
Method: as §2

Read-outs that look alike come from different tables or passages of the source.

T1 sequence (Q06187 whole entry): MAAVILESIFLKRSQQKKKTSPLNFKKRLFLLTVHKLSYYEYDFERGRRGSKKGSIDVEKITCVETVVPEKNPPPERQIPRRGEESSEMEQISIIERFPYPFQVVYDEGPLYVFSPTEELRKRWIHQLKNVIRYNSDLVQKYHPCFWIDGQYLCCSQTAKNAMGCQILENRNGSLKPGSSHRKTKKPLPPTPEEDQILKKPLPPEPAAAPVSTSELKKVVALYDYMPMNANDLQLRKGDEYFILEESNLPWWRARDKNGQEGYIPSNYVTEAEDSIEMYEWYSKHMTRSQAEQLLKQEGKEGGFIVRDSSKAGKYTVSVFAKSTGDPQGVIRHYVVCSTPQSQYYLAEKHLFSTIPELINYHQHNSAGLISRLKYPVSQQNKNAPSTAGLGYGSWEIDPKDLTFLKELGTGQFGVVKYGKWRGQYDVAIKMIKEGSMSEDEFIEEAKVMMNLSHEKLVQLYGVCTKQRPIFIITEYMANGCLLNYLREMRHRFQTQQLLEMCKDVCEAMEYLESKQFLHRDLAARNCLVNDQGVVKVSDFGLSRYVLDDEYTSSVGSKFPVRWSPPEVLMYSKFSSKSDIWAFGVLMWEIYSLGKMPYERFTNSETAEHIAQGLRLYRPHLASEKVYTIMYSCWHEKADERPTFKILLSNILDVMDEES

With `Nc1ncnc2c1c(-c1ccc(Oc3ccccc3)cc1)nn2C1CCN(C(=O)N2CCC(CN3CCN(c4ccc5c(c4)CN(C4CCC(=O)NC4=O)C5=O)CC3)CC2)CC1` (stereo not drawn) [Compound 86, 3-(5-(4-((1-(4-(4-amino-3-(4-phenoxyphenyl)-1H-pyrazolo(3,4-d)pyrimidin-1-yl)piperidine-1-carbonyl)piperidin-4-yl)methyl)piperazin-1-yl)-1-oxoisoindolin-2-yl)piperidine-2,6-dione], the “degradation of BTK protein” value at BTK [1] and at BTK [2] was “dose-dependent degradation” throughout. The IC50 in the assay with JeKo-1 cells and in the assay on Mino cells (MINO) was less than 1000 nM throughout. This molecule also displayed a Dmax on BTK [3] of more than 90%. The same molecule returned a half-maximal degradation concentration (DC50) at BTK [3] of less than 10 nM.
`Nc1ncnc2c1c(-c1ccc(Oc3ccccc3)cc1)nn2C1CCN(CC2CCN(C(=O)N3CCN(c4ccc5c(c4)CN(C4CCC(=O)NC4=O)C5=O)CC3)CC2)CC1` (stereo not drawn) [Compound 36, 3-(5-(4-(4-((4-(4-amino-3-(4-phenoxyphenyl)-1H-pyrazolo(3,4-d)pyrimidin-1-yl)piperidin-1-yl)methyl)piperidine-1-carbonyl)piperazin-1-yl)-1-oxoisoindolin-2-yl)piperidine-2,6-dione]: the “degradation of BTK protein” value at BTK [1] and on BTK [2] was “dose-dependent degradation” throughout. The IC50 with JeKo-1 cells and in the assay with Mino cells was less than 1000 nM in each case. Besides, the Dmax at BTK [3] is more than 90%. At BTK [3], the DC50 was less than 10 nM.
Take `Nc1ncnc2c1c(-c1ccc(Oc3ccccc3)cc1)nn2C1CCN(C2CCN(CC3CN(c4ccc5c(c4)C(=O)N(C4CCC(=O)NC4=O)C5=O)C3)C2)CC1` (stereo not drawn) [Compound 425, 5-(3-((3-(4-(4-amino-3-(4-phenoxyphenyl)-1H-pyrazolo(3,4-d)pyrimidin-1-yl)piperidin-1-yl)pyrrolidin-1-yl)methyl)azetidin-1-yl)-2-(2,6-dioxopiperidin-3-yl)isoindoline-1,3-dione]: on BTK [1], the “degradation of BTK protein” value is given as “dose-dependent degradation”, the 50% degradation concentration (DC50) is 10 to 50 nM and the Dmax was more than 90%. The “degradation of BTK protein” value at BTK [2] is on record as “dose-dependent degradation”. Besides, the IC50 with JeKo-1 cells was 1000 to 10000 nM. In the assay with Mino cells (MINO), the IC50 was 1000 to 10000 nM.
In the case of `Nc1ncnc2c1c(-c1ccc(Oc3ccccc3)cc1)nn2C1CCN(C2CCN(CC3CCN(c4ccc5c(c4)C(=O)N(C4CCC(=O)NC4=O)C5=O)CC3)C2)CC1` (stereo not drawn) [Compound 449, 5-(4-((3-(4-(4-amino-3-(4-phenoxyphenyl)-1H-pyrazolo(3,4-d)pyrimidin-1-yl)piperidin-1-yl)pyrrolidin-1-yl)methyl)piperidin-1-yl)-2-(2,6-dioxopiperidin-3-yl)isoindoline-1,3-dione], on BTK [1], the “degradation of BTK protein” value is “dose-dependent degradation”, the DC50 was less than 10 nM and the Dmax was more than 90%. The IC50 in the assay with JeKo-1 cells is less than 1000 nM. Also, the IC50 with Mino cells (MINO) was less than 1000 nM. Also, the “degradation of BTK protein” value on BTK [4] is recorded as “dose-dependent degradation”.
As for `Nc1ncnc2c1c(-c1ccc(Oc3ccccc3)cc1)nn2C1CCN(C(=O)N2CC(N3CCN(c4ccc5c(c4)CN(C4CCC(=O)NC4=O)C5=O)CC3)C2)CC1` (stereo not drawn) [Compound 478, 3-(5-(4-(1-(4-(4-amino-3-(4-phenoxyphenyl)-1H-pyrazolo[3,4-d]pyrimidin-1-yl)piperidine-1-carbonyl)azetidin-3-yl)piperazin-1-yl)-1-oxoisoindolin-2-yl)piperidine-2,6-dione], at BTK [1], the “degradation of BTK protein” value was “dose-dependent degradation”, the DC50 was less than 10 nM and the Dmax was more than 90%. Further, in the assay on JeKo-1 cells, the IC50 was less than 1000 nM. For the same molecule, the IC50 in the assay on Mino cells (MINO) was less than 1000 nM. For the same molecule, the “degradation of BTK protein” value on BTK [4] is on record as “dose-dependent degradation”.
With `Nc1ncnc2c1c(-c1ccc(Oc3ccccc3)cc1)nn2[C@@H]1CCCN(C2CCN(C(=O)N3CCC(CCN4CCN(c5ccc6c(c5)C(=O)N(C5CCC(=O)NC5=O)C6=O)CC4)CC3)CC2)C1` (stereo partly drawn) [Compound 181, 5-(4-(2-(1-((R)-3-(4-amino-3-(4-phenoxyphenyl)-1H-pyrazolo(3,4-d)pyrimidin-1-yl)-(1,4′-bipiperidine)-1′-carbonyl)piperidin-4-yl)ethyl)piperazin-1-yl)-2-(2,6-dioxopiperidin-3-yl)isoindoline-1,3-dione], at BTK [1], the “degradation of BTK protein at 10^−6 M” value was “degradation” and the “degradation of BTK protein” value is “dose-dependent degradation”. Further, the IC50 with JeKo-1 cells was 1000 to 10000 nM. Further, at BTK [3], the Dmax was more than 75% and the DC50 is 10 to 50 nM. Besides, the IC50 in the assay on Mino cells (MINO) lay in the range of 1000 to 10000 nM.
For `Nc1ncnc2c1c(-c1ccc(Oc3ccccc3)cc1)nn2[C@@H]1CCCN(C2CCN(C(=O)N3CCC(CN4CCN(c5ccc6c(c5)C(=O)N(C5CCC(=O)NC5=O)C6=O)CC4)CC3)CC2)C1` (stereo partly drawn) [Compound 169, 5-(4-((1-((R)-3-(4-amino-3-(4-phenoxyphenyl)-1H-pyrazolo(3,4-d)pyrimidin-1-yl)-(1,4′-bipiperidine)-1′-carbonyl)piperidin-4-yl)methyl)piperazin-1-yl)-2-(2,6-dioxopiperidin-3-yl)isoindoline-1,3-dione], on BTK [1], the “degradation of BTK protein at 10^−6 M” value is listed as “degradation” and the “degradation of BTK protein” value is reported as “dose-dependent degradation”. In addition, in the assay with JeKo-1 cells, the IC50 was less than 1000 nM. On BTK [3], this molecule yielded a Dmax of more than 90% and a DC50 of 10 to 50 nM. In the assay on Mino cells (MINO), the IC50 lay in the range of 1000 to 10000 nM.
In the case of `Nc1ncnc2c1c(-c1ccc(Oc3ccccc3)cc1)nn2[C@@H]1CCCN(C2CCN(C(=O)N3CCN(c4ccc5c(c4)C(=O)N(C4CCC(=O)NC4=O)C5=O)CC3)CC2)C1` (stereo partly drawn) [Compound 159, 5-(4-((R)-3-(4-amino-3-(4-phenoxyphenyl)-1H-pyrazolo(3,4-d)pyrimidin-1-yl)-(1,4′-bipiperidine)-1′-carbonyl)piperazin-1-yl)-2-(2,6-dioxopiperidin-3-yl)isoindoline-1,3-dione], at BTK [1], the “degradation of BTK protein at 10^−6 M” value was “degradation”. Besides, the IC50 with JeKo-1 cells is more than 10000 nM. At BTK [3], this molecule had a Dmax of more than 50% and a 50% degradation concentration (DC50) of more than 50 nM. Besides, the IC50 with Mino cells (MINO) lay in the range of 1000 to 10000 nM.
The matching figures for `Nc1ncnc2c1c(-c1ccc(Oc3ccccc3)cc1)nn2[C@@H]1CCCN(CC2CCN(C(=O)N3CCC(C4CCN(c5ccc6c(c5)C(=O)N(C5CCC(=O)NC5=O)C6=O)CC4)CC3)CC2)C1` (stereo partly drawn) [Compound 29, 5-(1′-(4-(((R)-3-(4-amino-3-(4-phenoxyphenyl)-1H-pyrazolo(3,4-d)pyrimidin-1-yl)piperidin-1-yl)methyl)piperidine-1-carbonyl)-(4,4′-bipiperidin)-1-yl)-2-(2,6-dioxopiperidin-3-yl)isoindoline-1,3-dione]: “degradation”, 1000 to 10000 nM, more than 90%, more than 50 nM and 1000 to 10000 nM.
Consider `Nc1ncnc2c1c(-c1ccc(Oc3ccccc3)cc1)nn2C1CCN(CC2CCN(C(=O)N3CCC(N4CCN(c5ccc6c(c5)C(=O)N(C5CCC(=O)NC5=O)C6=O)CC4)CC3)CC2)CC1` (stereo not drawn) [Compound 37, 5-(4-(1-(4-((4-(4-amino-3-(4-phenoxyphenyl)-1H-pyrazolo(3,4-d)pyrimidin-1-yl)piperidin-1-yl)methyl)piperidine-1-carbonyl)piperidin-4-yl)piperazin-1-yl)-2-(2,6-dioxopiperidin-3-yl)isoindoline-1,3-dione], for which, on BTK [1], the “degradation of BTK protein at 10^−6 M” value is on record as “degradation” and the “degradation of BTK protein” value is “dose-dependent degradation”. Moreover, the IC50 in the assay with JeKo-1 cells was 1000 to 10000 nM. On BTK [3], this molecule displayed a Dmax of more than 90% and a DC50 of 10 to 50 nM. In the assay on Mino cells (MINO), the IC50 was less than 1000 nM.
As to `Nc1ncnc2c1c(-c1ccc(Oc3ccccc3)cc1)nn2C1CCN(C(=O)N2CCC(C3CCN(c4ccc5c(c4)CN(C4CCC(=O)NC4=O)C5=O)CC3)CC2)CC1` (stereo not drawn) [Compound 80, 3-(5-(1′-(4-(4-amino-3-(4-phenoxyphenyl)-1H-pyrazolo[3,4-d]pyrimidin-1-yl)piperidine-1-carbonyl)-[4,4′-bipiperidin]-1-yl)-1-oxoisoindolin-2-yl)piperidine-2,6-dione], at BTK [1], the “degradation of BTK protein at 10^−6 M” value is given as “degradation”. Further, the IC50 with JeKo-1 cells is more than 10000 nM. At BTK [3], this molecule yielded a Dmax of more than 75% and a DC50 of more than 50 nM. Besides, the IC50 with Mino cells (MINO) is more than 10000 nM.
Regarding `Nc1ncnc2c1c(-c1ccc(Oc3ccccc3)cc1)nn2C1CCN(CC2CCN(C(=O)N3CCN(c4ccc5c(c4)C(=O)N(C4CCC(=O)NC4=O)C5=O)CC3)CC2)CC1` (stereo not drawn) [Compound 35, 5-(4-(4-((4-(4-amino-3-(4-phenoxyphenyl)-1H-pyrazolo(3,4-d)pyrimidin-1-yl)piperidin-1-yl)methyl)piperidine-1-carbonyl)piperazin-1-yl)-2-(2,6-dioxopiperidin-3-yl)isoindoline-1,3-dione], at BTK [1], the “degradation of BTK protein at 10^−6 M” value was “degradation” and the “degradation of BTK protein” value was “dose-dependent degradation”. Also, in the assay on JeKo-1 cells, the IC50 is 1000 to 10000 nM. For the same molecule, on BTK [3], the Dmax is more than 90% and the DC50 is less than 10 nM. In the assay on Mino cells (MINO), the IC50 is less than 1000 nM.
